Measurements as given in patent US12233161B1, “Lipids and lipid nanoparticle formulations” (LONGUIDE BIOPHARMA CORPORATION, priority 2024, dated 2025).
Where “and” joins values, the source holds several entries; their conditions need not be identical. Equal entries are not always repeated.

What was measured:
mice [1] = test: In vivo delivery of FLuc-mRNA lipid nanoparticles in mice, in vivo imaging (IVIS)
In short: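 Mice (n=3) received about 75 μL FLuc-mRNA LNP per mouse intramuscularly (rectus femoris), intravenously (tail vein), intraperitoneally or subcutaneously (back). After injection, D-luciferin (200 μL, 15 mg/mL) was given i.p. 10-15 min before IVIS imaging.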

[2] = Particle size and PDI of nucleic acid lipid nanoparticle preparations by dynamic light scattering; format: physicochemical
In short: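 LNP solution (about 0.04 mg/mL mRNA before dilution) was diluted in ultrapure water and mixed by gentle pipetting. Particle size and PDI were then measured by dynamic light scattering.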

[3] = Potential characterization of nucleic acid lipid nanoparticle preparations; format: physicochemical
In short: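 Zeta potential was read on a Malvern ZEN3700 after diluting 20 μL lipid nanoparticle solution (about 0.04 mg/mL mRNA) into 780 μL ultrapure water. Alternatively, a 27.5 μL sample in 200 μL water was first sized by dynamic light scattering, then diluted with 600 μL more water for potential measurement.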

mice [4] = test: In vivo delivery of lipid nanoparticles co-loaded with FLuc-mRNA and Cy5-siRNA in mice; conditions: IV, 1.00:10.00:33.00:56.00, N/P 30
Description: Lipid nanoparticles loaded with nucleic acid drugs were prepared according to step 2, replacing FLuc-mRNA with a mixture of FLuc-mRNA (Hongene Biotech Corporation, Shanghai) and Cy5-siRNA. Each mouse was administered a dose of 3 μg FLuc-mRNA and 3 μg Cy5-siRNA. After a certain period of time, in vivo imaging (PerkinElmer, IVIS Lumina III) was performed. For the detection of FLuc-mRNA expression, 200 μL of a 15 mg/mL D-Luciferin working solution was injected intraperitoneally ten to fifteen minutes before imaging, followed by imaging analysis using the in vivo imaging system. 9. Investigation of the Delivery Efficacy of Lipid Nanoparticle Formulations for Compounds in Mice

[5] = DMG-PEG2000:DSPC:Chol:Lipid 1.00:4.00:65.00:30.00, N/P 6, IV, liver
[6] = DMG-PEG2000:DSPC:Chol:Lipid 1.00:4.00:65.00:30.00, N/P 6, IV, lung
[7] = DMG-PEG2000:DSPC:Chol:Lipid 1.00:4.00:65.00:30.00, N/P 6, IV, spleen
[8] = DMG-PEG2000:DSPC:Chol:Lipid 5.00:10.00:29.00:56.00, N/P 42, IV, liver
[9] = DMG-PEG2000:DSPC:Chol:Lipid 5.00:10.00:29.00:56.00, N/P 42, IV, lung
[10] = DMG-PEG2000:DSPC:Chol:Lipid 5.00:10.00:29.00:56.00, N/P 42, IV, spleen
[11] = mRNA LNP, 1.00:10.00:33.00:56.00, N/P 42, IV, liver
[12] = mRNA LNP, 1.00:10.00:33.00:56.00, N/P 42, IV, lung
[13] = mRNA LNP, 1.00:10.00:33.00:56.00, N/P 42, IV, spleen
[14] = DMG-PEG2000:DSPC:Chol:Lipid 1.00:4.00:65.00:30.00, N/P 6, mRNA LNP
[15] = DMG-PEG2000:DSPC:Chol:Lipid 2.18:17.32:60.50:20.00, N/P 30, mRNA LNP
[16] = DMG-PEG2000:DSPC:Chol:Lipid 5.00:10.00:29.00:56.00, N/P 42, mRNA LNP
[17] = DMG-PEG2000:DSPC:Chol:compound 1.00:10.00:33.00:56.00, N/P 42
[18] = DMG-PEG2000:DSPC:Chol:compound 1.00:10.00:33.00:56.00, N/P 48
[19] = LNP co-loaded with Fluc-mRNA and Cy5-siRNA, DMG-PEG2k:DSPC:Chol:L0263 1.00:10.00:33.00:56.00, N/P 30
[20] = mRNA LNP, 1.00:10.00:33.00:56.00, N/P 42

PDI [2, 14]: 0.12 ± 0.01
Particle size [2, 14]: 110.83 ± 1.05 nm
PDI [2, 15]: 0.11 ± 0.02
Particle size [2, 15]: 126.23 ± 1.69 nm
PDI [2, 16]: 0.12 ± 0.01
Particle size [2, 16]: 126.40 ± 2.08 nm
PDI [2, 17]: 0.13 and 0.15
Particle size (nm) [2, 17]: 86.62 nm and 139.47 nm and 118.13 nm
PDI [2, 18]: 0.13
Particle size (nm) [2, 18]: 118.33 nm
PDI [2, 19]: 0.14
Particle size (nm) [2, 19]: 95.5 nm
PDI [2, 20]: 0.14
Particle size (nm) [2, 20]: 97.48 nm
Zeta potential (mV) [3, 17]: 11.54 mV
Zeta potential (mV) [3, 18]: 16.93 mV
Zeta potential (mV) [3, 19]: 12.77 mV
Zeta potential (mV) [3, 20]: 11.97 mV
Compound: CCCCCCCCCCCCNC(=O)C(O)CN(CCCN(C)CCCN(CC(O)C(=O)NCCCCCCCCCCCC)CC(O)C(=O)NCCCCCCCCCCCC)CC(O)C(=O)NCCCCCCCCCCCC (centres unmarked) [Compound L0263]
IVIS (mice [1]; DMG-PEG2000:DSPC:Chol:Lipid 1.00:4.00:65.00:30.00, N/P 6, IV, body): 1.07 × 10^7
% of organ targeting (mice [1]; [5]): 10.71%
IVIS (mice [1]; [5]): 1.34 × 10^6
% of organ targeting (mice [1]; [6]): 12.46%
IVIS (mice [1]; [6]): 1.55 × 10^6
% of organ targeting (mice [1]; [7]): 76.83%
IVIS (mice [1]; [7]): 9.58 × 10^6
IVIS (mice [1]; DMG-PEG2000:DSPC:Chol:Lipid 2.18:17.32:60.50:20.00, N/P 30, IM, whole body scan): 6.05 × 10^6
IVIS (mice [1]; DMG-PEG2000:DSPC:Chol:Lipid 5.00:10.00:29.00:56.00, N/P 42, IV, body): 1.83 × 10^8
% of organ targeting (mice [1]; [8]): 2.01%
IVIS (mice [1]; [8]): 4.24 × 10^6
% of organ targeting (mice [1]; [9]): 90.12%
IVIS (mice [1]; [9]): 1.90 × 10^8
% of organ targeting (mice [1]; [10]): 7.87%
IVIS (mice [1]; [10]): 1.66 × 10^7
IVIS (mice [1]; IP, organ not given, DMG-PEG2000:DSPC:Chol:compound 1.00:10.00:33.00:56.00, N/P 42, Fluc-mRNA): 5.82E+09
IVIS (mice [1]; IV, body, DMG-PEG2000:DSPC:Chol:compound 1.00:10.00:33.00:56.00, N/P 48, Fluc-mRNA): 7.08E+08
% of organ targeting (mice [1]; IV, liver, DMG-PEG2000:DSPC:Chol:compound 1.00:10.00:33.00:56.00, N/P 48): 0.44%
IVIS (mice [1]; IV, liver, DMG-PEG2000:DSPC:Chol:compound 1.00:10.00:33.00:56.00, N/P 48, Fluc-mRNA): 1.71E+07
% of organ targeting (mice [1]; IV, lung, DMG-PEG2000:DSPC:Chol:compound 1.00:10.00:33.00:56.00, N/P 48): 98.92%
IVIS (mice [1]; IV, lung, DMG-PEG2000:DSPC:Chol:compound 1.00:10.00:33.00:56.00, N/P 48, Fluc-mRNA): 3.83E+09
% of organ targeting (mice [1]; IV, spleen, DMG-PEG2000:DSPC:Chol:compound 1.00:10.00:33.00:56.00, N/P 48): 0.63%
IVIS (mice [1]; IV, spleen, DMG-PEG2000:DSPC:Chol:compound 1.00:10.00:33.00:56.00, N/P 48, Fluc-mRNA): 2.46E+07
in vivo delivery efficiency as compared to the benchmark compound SM102 (mice [1]; certain formulations, Table 2): superior in vivo delivery efficiency
tissue-targeting specificity (lung vs spleen depending on molar percentage of compound) (mice [1]; certain formulations, Table 2): strong tissue-targeting specificity
% of organ targeting (mice [1]; [11]): 0.46%
IVIS (mice [1]; [11]): 8.07E+06
% of organ targeting (mice [1]; [12]): 99.18%
IVIS (mice [1]; [12]): 1.74E+09
% of organ targeting (mice [1]; [13]): 0.36%
IVIS (mice [1]; [13]): 6.30E+06
IVIS (mice [1]; mRNA LNP, DMG-PEG2000:DSPC:Chol:lipid 1.00:10.00:33.00:56.00, N/P 42, IV, body): 2.93E+08
% of organ targeting (Fluc) (mice [4]; 10 min, Heart): 0.2%
Fluc IVIS/g Organ (mice [4]; 10 min, Heart): 9.76E+05
% of organ targeting (Fluc) (mice [4]; 10 min, Kidney): 0.1%
Fluc IVIS/g Organ (mice [4]; 10 min, Kidney): 3.33E+05
% of organ targeting (Fluc) (mice [4]; 10 min, Liver): 0.1%
Fluc IVIS/g Organ (mice [4]; 10 min, Liver): 5.97E+05
% of organ targeting (Fluc) (mice [4]; 10 min, Lung): 97.9%
Fluc IVIS/g Organ (mice [4]; 10 min, Lung): 4.98E+08
% of organ targeting (Fluc) (mice [4]; 10 min, Spleen): 1.7%
Fluc IVIS/g Organ (mice [4]; 10 min, Spleen): 8.58E+06
% of organ targeting (Fluc) (mice [4]; 20 min, Heart): 0.2%
Fluc IVIS/g Organ (mice [4]; 20 min, Heart): 3.16E+06
% of organ targeting (Fluc) (mice [4]; 20 min, Kidney): 0.0%
Fluc IVIS/g Organ (mice [4]; 20 min, Kidney): 4.37E+05
% of organ targeting (Fluc) (mice [4]; 20 min, Liver): 0.1%
Fluc IVIS/g Organ (mice [4]; 20 min, Liver): 1.27E+06
% of organ targeting (Fluc) (mice [4]; 20 min, Lung): 99.2%
Fluc IVIS/g Organ (mice [4]; 20 min, Lung): 1.98E+09
% of organ targeting (Fluc) (mice [4]; 20 min, Spleen): 0.6%
Fluc IVIS/g Organ (mice [4]; 20 min, Spleen): 1.13E+07
% of organ targeting (Fluc) (mice [4]; 1 h, Heart): 0.2%
Fluc IVIS/g Organ (mice [4]; 1 h, Heart): 6.32E+06
% of organ targeting (Fluc) (mice [4]; 1 h, Kidney): 0.0%
Fluc IVIS/g Organ (mice [4]; 1 h, Kidney): 1.67E+06
% of organ targeting (Fluc) (mice [4]; 1 h, Liver): 0.1%
Fluc IVIS/g Organ (mice [4]; 1 h, Liver): 3.51E+06
% of organ targeting (Fluc) (mice [4]; 1 h, Lung): 98.1%
Fluc IVIS/g Organ (mice [4]; 1 h, Lung): 3.70E+09
% of organ targeting (Fluc) (mice [4]; 1 h, Spleen): 1.6%
Fluc IVIS/g Organ (mice [4]; 1 h, Spleen): 5.86E+07
